These results are taken from PubChem BioAssay AID220 (DTP/NCI, 2004).

Each structure is given as a SMILES string. Values joined by “and” are separate entries in the source; they are usually repeats but may differ in a detail not shown here. Equal values may be shown once. Records with an inconclusive call do not appear.

The experiment concerns CD8F1 mice, subcutaneous mammary adenocarcinoma, T/C%. Description: NCI In Vivo Anticancer Drug Screen. Data for tumor model Mammary Adenocarcinoma CD8F1 (subcutaneous) in CD8F1. The note with it: higher = larger tumour. The gist of the method:
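Tumor-bearing mice, transplantable model; readout survival or tumor size; value = treated (T) / vehicle control (C).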

[1] abbreviates: endpoint: median tumor weight change, dose: 125.0 mg/kg/injection, schedule: Q01DX001 (ip), vehicle: saline.
The mark [2] stands for this setting: endpoint: median tumor weight change, dose: 250.0 mg/kg/injection, schedule: Q01DX001 (ip), vehicle: saline.
Setting [3] is: endpoint: median tumor weight change, dose: 500.0 mg/kg/injection, schedule: Q01DX001 (ip), vehicle: saline.
[4] abbreviates: endpoint: median tumor weight change, dose: 1000.0 mg/kg/injection, schedule: Q01DX001 (ip), vehicle: saline.
Setting [5] is: endpoint: median tumor weight change, dose: 125.0 mg/kg/injection, schedule: Q01DX001 (ip), vehicle: saline with Tween-80.
[6] abbreviates: endpoint: median tumor weight change, dose: 2000.0 mg/kg/injection, schedule: Q01DX001 (ip), vehicle: saline.
Where [7] appears, read: endpoint: median tumor weight (est.), dose: 12.5 mg/kg/injection, schedule: Q07DX005 (ip), vehicle: saline with Tween-80.
Where [8] appears, read: endpoint: median tumor weight (est.), dose: 25.0 mg/kg/injection, schedule: Q07DX005 (ip), vehicle: saline with Tween-80.

As to `O=C(O)[C@H](Cc1ccccc1)N1C(=O)c2ccccc2C1=O`, the T/C reads like this: (endpoint: median tumor weight change, dose: 62.5 mg/kg/injection, schedule: Q01DX001 (ip), vehicle: DMSO) 75 % of control; (endpoint: median tumor weight change, dose: 125.0 mg/kg/injection, schedule: Q01DX001 (ip), vehicle: DMSO) 116 % of control; (endpoint: median tumor weight change, dose: 250.0 mg/kg/injection, schedule: Q01DX001 (ip), vehicle: DMSO) 68 % of control; (endpoint: median tumor weight change, dose: 500.0 mg/kg/injection, schedule: Q01DX001 (ip), vehicle: DMSO) 59 % of control.
Turning to `OCCCN1CCCCC1CO` (configuration not stated), the T/C is 78 % of control under setting [1], 103 % of control under setting [2], 105 % of control under setting [3] and 103 % of control under setting [4].
As for `COc1cc2c(c(OC)c1OC)-c1ccc(OC)c(=O)cc1[C@@H](NC(C)=O)CC2`, the T/C reads like this: (endpoint: median tumor weight (est.), dose: 0.75 mg/kg/injection, schedule: Q07DX005 (ip), vehicle: saline) 82 % of control and 97 % of control; (endpoint: median tumor weight (est.), dose: 1.5 mg/kg/injection, schedule: Q07DX005 (ip), vehicle: saline) 49 % of control; (endpoint: median tumor weight change, dose: 3.0 mg/kg/injection, schedule: Q01DX001 (ip), vehicle: suspension in saline) 21 % of control; (endpoint: median tumor weight change, dose: 6.25 mg/kg/injection, schedule: Q01DX001 (ip), vehicle: saline) -47 % of control.
Turning to `Cc1ccc2c(c1)N=C(Nc1ccccc1)N=S2(C)=O` (configuration not stated), the T/C is, setting by setting: (endpoint: median tumor weight change, dose: 7.81 mg/kg/injection, schedule: Q01DX001 (ip), vehicle: saline with Tween-80) 115 % of control; (endpoint: median tumor weight change, dose: 15.62 mg/kg/injection, schedule: Q01DX001 (ip), vehicle: saline with Tween-80) 121 % of control; (endpoint: median tumor weight change, dose: 31.25 mg/kg/injection, schedule: Q01DX001 (ip), vehicle: saline with Tween-80) 67 % of control; under setting [5], 93 % of control.
For `CN(C)N=Nc1cn[nH]c1C(N)=O`, the T/C is, setting by setting: (endpoint: median tumor weight (est.), dose: 25.0 mg/kg/injection, schedule: Q07DX005 (ip), vehicle: Klucel (hydroxypropylcellulose) (HPC)) 97 % of control; (endpoint: median tumor weight (est.), dose: 50.0 mg/kg/injection, schedule: Q07DX005 (ip), vehicle: Klucel (hydroxypropylcellulose) (HPC)) 56 % of control; (endpoint: median tumor weight (est.), dose: 100.0 mg/kg/injection, schedule: Q07DX005 (ip), vehicle: Klucel (hydroxypropylcellulose) (HPC)) 73 % of control; (endpoint: median tumor weight (est.), dose: 200.0 mg/kg/injection, schedule: Q07DX005 (ip), vehicle: Klucel (hydroxypropylcellulose) (HPC)) 57 % of control.
With `C[Si](C)(C)O/C=C1\CCCCC1=O`, the T/C is 70 % of control (endpoint: median tumor weight change, dose: 62.0 mg/kg/injection, schedule: Q01DX001 (ip), vehicle: saline with Tween-80); 119 % of control (endpoint: median tumor weight change, dose: 62.5 mg/kg/injection, schedule: Q01DX001 (ip), vehicle: saline with Tween-80); 54 % of control and 69 % of control under setting [5]; 93 % of control (endpoint: median tumor weight change, dose: 250.0 mg/kg/injection, schedule: Q01DX001 (ip), vehicle: saline with Tween-80).
Consider `CC1OC(=O)C(C(C)C)NC(=O)C(C(C)C)OC(=O)C(C(C)C)NC(=O)C(C)OC(=O)C(C(C)C)NC(=O)C(C(C)C)OC(=O)C(C(C)C)NC(=O)C(C)OC(=O)C(C(C)C)NC(=O)C(C(C)C)OC(=O)C(C(C)C)NC1=O` (configuration not stated), for which the T/C was 119 % of control (endpoint: mean tumor weight, dose: 1.0 mg/kg/injection, schedule: Q02DX007 (ip), vehicle: saline); 49 % of control (endpoint: mean tumor weight, dose: 1.0 mg/kg/injection, schedule: Q07DX006 (ip), vehicle: saline); 87 % of control (endpoint: mean tumor weight, dose: 2.0 mg/kg/injection, schedule: Q02DX007 (ip), vehicle: saline); 110 % of control (endpoint: mean tumor weight, dose: 2.0 mg/kg/injection, schedule: Q07DX006 (ip), vehicle: saline); 97 % of control (endpoint: mean tumor weight, dose: 4.0 mg/kg/injection, schedule: Q02DX007 (ip), vehicle: saline); 165 % of control (endpoint: mean tumor weight, dose: 4.0 mg/kg/injection, schedule: Q07DX006 (ip), vehicle: saline). In addition, the T/C was 103 % of control (endpoint: mean tumor weight, dose: 8.0 mg/kg/injection, schedule: Q02DX007 (ip), vehicle: saline); 84 % of control (endpoint: mean tumor weight, dose: 8.0 mg/kg/injection, schedule: Q07DX006 (ip), vehicle: saline); 116 % of control (endpoint: mean tumor weight, dose: 16.0 mg/kg/injection, schedule: Q02DX007 (ip), vehicle: saline); 70 % of control (endpoint: mean tumor weight, dose: 16.0 mg/kg/injection, schedule: Q07DX006 (ip), vehicle: saline); 69 % of control (endpoint: median tumor weight (est.), dose: 1.25 mg/kg/injection, schedule: Q07DX005 (ip), vehicle: saline with Tween-80); 34 % of control (endpoint: median tumor weight (est.), dose: 2.5 mg/kg/injection, schedule: Q07DX005 (ip), vehicle: saline with Tween-80). Also, the T/C is, setting by setting: (endpoint: median tumor weight (est.), dose: 5.0 mg/kg/injection, schedule: Q07DX005 (ip), vehicle: saline with Tween-80) 86 % of control; (endpoint: median tumor weight (est.), dose: 10.0 mg/kg/injection, schedule: Q07DX005 (ip), vehicle: saline with Tween-80) 114 % of control; (endpoint: median tumor weight (est.), dose: 20.0 mg/kg/injection, schedule: Q07DX005 (ip), vehicle: saline with Tween-80) 74 % of control.
Consider `CC(=O)CC(c1ccccc1)c1c(O)c2ccccc2oc1=O` (configuration not stated), for which the T/C by setting is: (endpoint: median tumor weight change, dose: 0.01 mg/kg/injection, schedule: Q01DX001 (ip), vehicle: Klucel (hydroxypropylcellulose) (HPC)) 183 % of control; (endpoint: median tumor weight change, dose: 0.02 mg/kg/injection, schedule: Q01DX001 (ip), vehicle: Klucel (hydroxypropylcellulose) (HPC)) 157 % of control; (endpoint: median tumor weight change, dose: 0.05 mg/kg/injection, schedule: Q01DX001 (ip), vehicle: Klucel (hydroxypropylcellulose) (HPC)) 196 % of control; (endpoint: median tumor weight change, dose: 0.1 mg/kg/injection, schedule: Q01DX001 (ip), vehicle: Klucel (hydroxypropylcellulose) (HPC)) 203 % of control; (endpoint: median tumor weight change, dose: 0.2 mg/kg/injection, schedule: Q01DX001 (ip), vehicle: Klucel (hydroxypropylcellulose) (HPC)) 192 % of control.
Regarding `CN=C(NC#N)NCCSCc1nc[nH]c1C`, the T/C (endpoint: median tumor weight change, dose: 250.0 mg/kg/injection, schedule: Q01DX001 (ip), vehicle: Klucel (hydroxypropylcellulose) (HPC)) was 57 % of control.
Regarding `COC1=NCN=C2SC=C(N)N=C12`, the T/C (endpoint: median tumor weight (est.), dose: 6.25 mg/kg/injection, schedule: Q07DX005 (ip), vehicle: saline) is 208 % of control; the T/C (endpoint: median tumor weight (est.), dose: 12.5 mg/kg/injection, schedule: Q07DX005 (ip), vehicle: saline) is 76 % of control; the T/C (endpoint: median tumor weight (est.), dose: 25.0 mg/kg/injection, schedule: Q07DX005 (ip), vehicle: saline) was 107 % of control; the T/C (endpoint: median tumor weight (est.), dose: 50.0 mg/kg/injection, schedule: Q07DX005 (ip), vehicle: saline) is 156 % of control.
With `O=C1OC(=O)[C@H]2[C@@H]1[C@H]1C=C[C@@H]2OC1=O`, the T/C is, setting by setting: under setting [1], 154 % of control; under setting [2], 98 % of control; under setting [3], 91 % of control; under setting [4], 95 % of control; under setting [6], 40 % of control.
As to `C[C@H](N)C(=O)N[C@@H]1[C@H]2C(=C(O)C[C@@H](O)[C@@H]2O)C(=O)O[C@@H]1C`, the T/C reads like this: under setting [1], 101 % of control; under setting [2], 120 % of control; under setting [4], 57 % of control; under setting [6], 86 % of control.
As for `COc1cccc2c1C(=O)c1c(O)c3c(c(O)c1C2=O)C[C@@](O)(C(C)=O)C[C@@H]3OC1CC(N(Cc2ccccc2)Cc2ccccc2)C(O)C(C)O1` (some centres not stated), the T/C (endpoint: median tumor weight (est.), dose: 1.56 mg/kg/injection, schedule: Q07DX005 (ip), vehicle: saline with Tween-80) is 68 % of control; the T/C (endpoint: median tumor weight (est.), dose: 3.12 mg/kg/injection, schedule: Q07DX005 (ip), vehicle: saline with Tween-80) was 72 % of control; the T/C (endpoint: median tumor weight (est.), dose: 6.25 mg/kg/injection, schedule: Q07DX005 (ip), vehicle: saline with Tween-80) was 75 % of control; the T/C under setting [7] was 29 % of control; the T/C under setting [8] was 9 % of control.
On to `CCCCC[C@H](O)/C=C/[C@@H]1[C@@H](C/C=C\CCCC(=O)O)[C@@H](O)C[C@H]1O`, for which the T/C is 93 % of control (endpoint: mean tumor weight, dose: 160.0 mg/kg/injection, schedule: Q01DX001 (iv), vehicle: saline) and 58 % of control (endpoint: mean tumor weight, dose: 320.0 mg/kg/injection, schedule: Q01DX001 (iv), vehicle: saline).
In the case of `CN1C(=O)C(=Cc2ccc(O)cc2)C(=O)N(C)C1=O`, the T/C was 94 % of control under setting [5] and 165 % of control (endpoint: median tumor weight change, dose: 500.0 mg/kg/injection, schedule: Q01DX001 (ip), vehicle: saline with Tween-80).
Consider `C(COCCOCC1CO1)OCCOCC1CO1` (configuration not stated), for which the T/C is, setting by setting: under setting [7], 69 % of control; under setting [8], 91 % of control; (endpoint: median tumor weight (est.), dose: 50.0 mg/kg/injection, schedule: Q07DX005 (ip), vehicle: saline with Tween-80) 68 % of control; (endpoint: median tumor weight (est.), dose: 100.0 mg/kg/injection, schedule: Q07DX005 (ip), vehicle: saline with Tween-80) 110 % of control; (endpoint: median tumor weight (est.), dose: 400.0 mg/kg/injection, schedule: Q07DX005 (ip), vehicle: saline with Tween-80) 112 % of control.
